Structures are written as SMILES.

Consider 29 compounds from patent US7265130B2, “NPY Y5 antagonist” (Shionogi & Co., Ltd., priority 1999, dated 2007).

The first experiment concerns the target T1, human NPY Y5 receptor (Homo sapiens, UniProt Q15761).
T1 construct: expressed in transfected cells
T1 sequence (Q15761 1-445): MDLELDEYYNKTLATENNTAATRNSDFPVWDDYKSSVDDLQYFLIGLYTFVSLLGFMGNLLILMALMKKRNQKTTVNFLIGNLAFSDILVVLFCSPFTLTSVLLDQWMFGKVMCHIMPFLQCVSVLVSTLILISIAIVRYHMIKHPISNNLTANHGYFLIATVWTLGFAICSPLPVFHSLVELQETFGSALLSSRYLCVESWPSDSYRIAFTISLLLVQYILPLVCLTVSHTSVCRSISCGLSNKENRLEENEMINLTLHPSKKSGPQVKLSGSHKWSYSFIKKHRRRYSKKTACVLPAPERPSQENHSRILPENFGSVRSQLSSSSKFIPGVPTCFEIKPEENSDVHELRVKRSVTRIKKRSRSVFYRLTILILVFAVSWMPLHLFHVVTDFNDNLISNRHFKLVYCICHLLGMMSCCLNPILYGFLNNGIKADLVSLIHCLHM
Kind of experiment: Affinity for NPY Y5 receptor ([125I] peptide YY binding, CHO cell membranes). The conditions noted are these: inhibition of specific [125I] peptide YY binding, membranes of CHO cells expressing NPY Y5 receptor. From the text: Experiment 1 Affinity for NPY Y5 Receptor
cDNA sequence encoding a human NPY Y5 receptor (WO096/16542) was cloned in the expression vector pME18S (Takebe et al. Mol. Cell. Biol. 8, 8957). The obtained expression vector was transfected into a host CHO cells by using a Lipofect AMINE reagent (Trademark, Gibco BRL Co., Ltd.) according to an instruction protocol to obtain the cells that stably express NPY Y5 receptor.
The membranes prepared from the above CHO cells expressing NPY Y5 receptor, the compound of the present invention and 30,000 cpm [^125I] peptide YY (60 pM of final concentration: Amersham) were incubated in the assay buffer (20 mM HEPES-Hanks buffer containing 0.1% bovine serum albumin, pH 7.4) at 25° C. for 2 hours, and then the mixture was filtered with a glassfilter GF/C treated with polyethyleneimine. After the glassfilter was washed with 50 mM Tris-HCl buffer (pH 7.4), the radioactivity on the filter was measured with a gamma counter. The non-specific binding was detected in the presence of 200 nM of peptide YY. The 50% inhibitory concentration of the test compound against the specific peptide YY binding (IC50 value) was calculated (Inui, A. et al. Endocrinology 131, 2090-2096 (1992)).
In general, IC50 refers to the concentration at which inhibition is half-maximal. Lower therefore signals inhibition by little substance. The compound `CCCCc1ccc(C(=O)Nc2ccc(NS(=O)(=O)C(C)C)cc2)cc1` [Compound I-2] gave an IC50 of 7.5 nM.
As for `CCCCc1ccc(NC(=O)CCCCNS(=O)(=O)C(C)C)cc1` [Compound I-7], the IC50 was 3 nM.
Take `CCCCc1ccc(NC(=O)CCCCNS(=O)(=O)C(C)(C)C)cc1` [Compound I-11]: the IC50 came to 1.3 nM.
For `CCCCc1ccc(NC(=O)C2CCC(NS(=O)(=O)C(C)(C)C)CC2)cc1` (stereo not shown) [Compound I-18], the IC50 worked out at 4.4 nM. This IC50 lies about 3.4-fold higher than the previous one.
`CCCCc1ccc(C(=O)NCCCCNS(=O)(=O)C(C)(C)C)cc1` [Compound I-20]: the IC50 is 7 nM.
The compound `CC(C)(C)S(=O)(=O)NC1CCC(C(=O)Nc2ccc(-c3ccc(-c4ccccc4)cc3)cc2)CC1` (stereo not shown) [Compound I-136] showed an IC50 of 2.8 nM. This IC50 lies about 2.5-fold lower than the previous one.
Same read-out and setting: the result for `COc1ccc(Cl)cc1NC(=O)C1CCC(NS(=O)(=O)C(C)(C)C)CC1` (stereo not shown) [Ia-35] reads 1.8 nM.
Compound `CC(C)S(=O)(=O)N[C@H]1CC[C@H](C(=O)Nc2ccc3oc(=O)ccc3c2)CC1` [Ia-76] yielded an IC50 of 2.2 nM.
Same read-out and setting: the result for `CC(C)(C)S(=O)(=O)N[C@H]1CC[C@H](C(=O)Nc2ccc3c(c2)C(=O)N(c2ccccc2)C3=O)CC1` [Ia-79] reads 0.82 nM; that for `CC(C)S(=O)(=O)NC1CCC(C(=O)Nc2ccc(-c3ncco3)cc2)CC1` (stereo not shown) [Ia-184], 0.38 nM; that for `CC(C)(C)S(=O)(=O)NC1CCC(C(=O)Nc2cccc(-c3ccco3)c2)CC1` (stereo not shown) [Ia-209], 0.55 nM.
With `Cc1cc(=O)oc2cc(NC(=O)[C@H]3CC[C@H](NS(=O)(=O)C(C)C)CC3)ccc12` [Ia-227], the half-maximal inhibitory concentration (IC50) is 0.59 nM.
The same measure, in the same setting: the result for `Cc1cc(=O)oc2cc(NC(=O)CCCCNS(=O)(=O)C(C)(C)C)ccc12` [Ia-228] reads 0.96 nM; that for `Cc1cc(=O)oc2cc(NC(=O)CCCCNS(=O)(=O)C(C)C)ccc12` [Ia-229], 1.9 nM.
Still for that read-out and setting: the result for `CC(C)CN1C(=O)c2ccc(NC(=O)[C@H]3CC[C@H](NS(=O)(=O)C(C)(C)C)CC3)cc2C1=O` [Ia-230] reads 0.32 nM; that for `CC(C)CN1C(=O)c2ccc(NC(=O)[C@H]3CC[C@H](NS(=O)(=O)C(C)C)CC3)cc2C1=O` [Ia-231], 0.29 nM.
`CC(C)CN1C(=O)c2ccc(NC(=O)CCCCNS(=O)(=O)C(C)(C)C)cc2C1=O` [Ia-232] yielded an IC50 of 0.7 nM.
For `CC(C)CN1C(=O)c2ccc(NC(=O)CCCCNS(=O)(=O)C(C)C)cc2C1=O` [Ia-233], the IC50 turned out to be 0.63 nM.
The same measure, in the same setting: the result for `CC(C)(C)S(=O)(=O)NC1CCC(C(=O)Nc2nc3ccccc3s2)CC1` (stereo not shown) [Ia-235] reads 5.5 nM.
As for `CC(C)(C)S(=O)(=O)NC1CCN(C(=O)Nc2ccc(C(F)(F)F)cn2)CC1` [Ia-241], the IC50 is 1.9 nM.
Compound `Cc1cc(C(=O)NC(C)C)ccc1NC(=O)N1CCC(NS(=O)(=O)C(C)(C)C)CC1` [Ia-243] gave an IC50 of 1.3 nM.
Compound `CC(C)(C)S(=O)(=O)NC1CCC(C(=O)Nc2ccc3occc3c2)CC1` (stereo not shown) [Ia-250] gave an IC50 of 1.9 nM.
Still for that read-out and setting: the result for `CC(C)S(=O)(=O)NC1CCC(C(=O)Nc2ccc(OC(C)(C)C)cc2)CC1` (stereo not shown) [Ia-252] reads 1.2 nM; that for `CC(C)(C)Oc1ccc(NC(=O)CCCCNS(=O)(=O)C(C)(C)C)cc1` [Ia-253], 0.53 nM; that for `CC(C)(C)Oc1ccc(NC(=O)N2CCC(NS(=O)(=O)C(C)(C)C)CC2)cc1` [Ia-254], 2 nM.
The same measure, in the same setting: the result for `CC(C)(C)S(=O)(=O)NCCCCC(=O)Nc1ccc(N2CCCS2(=O)=O)cc1` [Ia-255] reads 3.2 nM; that for `CC(C)(C)S(=O)(=O)NC1CCN(C(=O)Nc2ccc(N3CCCS3(=O)=O)cc2)CC1` [Ia-256], 5.7 nM; that for `CC(C)(C)S(=O)(=O)NCCCCC(=O)Nc1ccc(OC2CCOCC2)cc1` [Ia-257], 8.6 nM.
The same measure, in the same setting: then `CC(C)S(=O)(=O)NC1CCC(C(=O)Nc2ccc(OC3CCOCC3)cc2)CC1` (stereo not shown) [Ia-258], with 1.8 nM.

The next experiment addresses T1, human NPY Y5 receptor. Kind of experiment: cAMP production inhibitory activity in CHO cells. Format: cell-based. The note with it: against 50 nM NPY inhibition of forskolin stimulated cAMP, CHO cells expressing human NPY Y5 receptor. The protocol:
Experiment 2 cAMP production inhibitory activity in CHO cells
After CHO cells expressing human NPY Y5 receptor were incubated in the presence of 2.5 mM isobutylmethylxanthine (SIGMA) at 37° C. for 20 min., the compound of the present invention was added and incubated for 5 min. Then, 50 nM NPY and 10 μM forskolin (SIGMA) were added to the cells and incubated for 30 min. After the reaction was terminated by adding 1N HCl, the amount of cAMP in the supernatant was measured with EIA kit (Amersham LIFE SCIENCE).
For orientation: Cyclic AMP is a second messenger, typically raised through Gs and lowered through Gi signalling.
In turn, `CCCCc1ccc(C(=O)Nc2ccc(NS(=O)(=O)C(C)C)cc2)cc1` [Compound I-2] showed an IC50 of 72 nM.
As to `CCCCc1ccc(NC(=O)CCCCNS(=O)(=O)C(C)C)cc1` [Compound I-7], the IC50 was less than 10 nM.
Still for that read-out and setting: then `CCCCc1ccc(NC(=O)CCCCNS(=O)(=O)C(C)(C)C)cc1` [Compound I-11], with 5 nM; and `CCCCc1ccc(NC(=O)C2CCC(NS(=O)(=O)C(C)(C)C)CC2)cc1` (stereo not shown) [Compound I-18], with 29 nM.
For the compound `CCCCc1ccc(C(=O)NCCCCNS(=O)(=O)C(C)(C)C)cc1` [Compound I-20], inhibition was half-maximal at 21 nM (IC50).
